The values that follow come from patent publication US20130123325A1, “USE OF BOCEPREVIR AND RELATED COMPOUNDS IN ATHEROSCLEROSIS, HEART FAILURE, RENAL DISEASES, LIVER DISEASES OR INFLAMMATORY DISEASES” (priority 2011, published 2013).

The target of this assay is T1, Recombinant human cathepsin A (Homo sapiens, UniProt P10619).
T1 construct: Recombinant human cathepsin A (residues 29-480, with a C-terminal 10-His tag); 10-His (C); purchased R & D Systems 1049-SE
T1 sequence (P10619 29-326 limits assumed): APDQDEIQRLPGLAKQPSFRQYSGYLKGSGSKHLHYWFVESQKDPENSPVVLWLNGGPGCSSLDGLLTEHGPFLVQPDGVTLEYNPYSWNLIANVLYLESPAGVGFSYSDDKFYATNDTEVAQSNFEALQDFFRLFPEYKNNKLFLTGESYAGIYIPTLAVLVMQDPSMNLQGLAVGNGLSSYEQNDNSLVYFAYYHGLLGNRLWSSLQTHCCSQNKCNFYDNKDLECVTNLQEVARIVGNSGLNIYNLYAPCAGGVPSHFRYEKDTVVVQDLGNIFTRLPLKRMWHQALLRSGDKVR
T1 sequence (P10619 327-480 limits assumed): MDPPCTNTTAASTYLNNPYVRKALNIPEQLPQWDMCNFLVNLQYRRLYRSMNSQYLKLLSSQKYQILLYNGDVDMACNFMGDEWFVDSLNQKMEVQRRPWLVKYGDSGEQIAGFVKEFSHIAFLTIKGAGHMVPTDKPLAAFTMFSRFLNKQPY
The assay can be described thus: Cathepsin A inhibitory activity. The format is biochemical. As to conditions: Bodipy FL-labeled bradykinin substrate 2 μM, pH 5.5, microfluidic capillary electrophoresis. How it is done: Recombinant human cathepsin A (residues 29-480, with a C-terminal 10-His tag; R & D Systems, # 1049-SE) was proteolytically activated with recombinant human cathepsin L (R & D Systems, # 952-CY). Briefly, cathepsin A was incubated at 10 μg/ml with cathepsin L at 1 μg/ml in activation buffer (25 mM 2-(morpholin-4-yl)-ethanesulfonic acid (MES), pH 6.0, containing 5 mM dithiothreitol (DTT)) for 15 min at 37° C. Cathepsin L activity was then stopped by the addition of the cysteine protease inhibitor E-64 (N-(trans-epoxysuccinyl)-L-leucine-4-guanidinobutylamide; Sigma-Aldrich, # E3132; dissolved in activation buffer/DMSO) to a final concentration of 10 μM.
The activated cathepsin A was diluted in assay buffer (25 mM MES, pH 5.5, containing 5 mM DTT) and mixed with the test compound (dissolved in assay buffer containing (v/v) 3% DMSO) or, in the control experiments, with the vehicle in a multiple assay plate. […]
Uncleaved substrate and product were then separated by a microfluidic capillary electrophoresis on a LabChip® 3000 Drug Discovery System (12-Sipper-Chip; Caliper Life Sciences) and quantified by determination of the respective peak areas. Substrate turnover was calculated by dividing product peak area by the sum of substrate and product peak areas, and the enzyme activity and the inhibitory effect of the test compound thus quantified. […]

pIC50: −log10 of the molar value.

Broadly, the pIC50 is the negative decadic logarithm of the IC50, by convention in mol/L. Consider `CC(C)(C)NC(=O)N[C@H](C(=O)N1C[C@H]2[C@@H]([C@H]1C(=O)NC(CC1CCC1)C(=O)C(N)=O)C2(C)C)C(C)(C)C` (stereo partly drawn) [Boceprevir, (1R,2S,5S)—N-[(2E)-4-amino-1-cyclobutyl-3,4-dioxobutan-2-yl]-3-{(2S)-2-[(tert-butylcarbamoyl)amino]-3,3-dimethylbutanoyl}-6,6-dimethyl-3-azabicyclo[3.1.0]hexane-2-carboxamide], for which the pIC50 was 6.00.
